Measured values reported in patent US4604239A, “Antibiotics” (Eli Lilly and Company, priority 1985, dated 1986).

Columns and labels:
Assay in all cases: agar-dilution MIC
Format in all cases: cell-based
[1] = system: Staphylococcus aureus
[2] = system: Hemophilus influenzae
[3] = system: Bacteroides fragilis
Excerpt: (§1) The agar-dilution procedure described by the International Collaborative study (ICS) group was used to determine the minimum inhibitory concentrations (MIC's).

[4] = system: Staphylococcus epidermidis
Excerpt: as §1

[5] = system: Streptococcus pneumoniae
Excerpt: as §1

[6] = system: Streptococcus pyogenes; settings: Table 11
Excerpt: as §1

Measured: MIC

NC1C(=O)NC2Cc3ccc(c(Cl)c3)Oc3cc4cc(c3O)Oc3ccc(cc3Cl)C(O)C3NC(=O)C(NC(=O)C4NC(=O)C(NC2=O)c2cc(O)cc(c2)Oc2cc1ccc2O)c1cc(Cl)c(O)c(c1)-c1c(O)cc(O)cc1C(C(=O)O)NC3=O (stereo not drawn) [A41030 factor A]
1 µg/mL: [4]; Staphylococcus epidermidis EPI2, Table 17
≤ 0.06 µg/mL: [1]; Staphylococcus aureus 3074, Penicillin-resistant, Table 11 | [1]; Staphylococcus aureus 3131 (**Penicillin, methicillin, and erythromycin), Table 11 | [1]; Staphylococcus aureus 3134 (**Penicillin, methicillin, and erythromycin), Table 11 | [1]; Staphylococcus aureus H43, Penicillin-resistant, Table 11 | [1]; Staphylococcus aureus H290, Table 11 | [1]; Staphylococcus aureus V57, Penicillin-resistant, Table 11 | [4]; Staphylococcus epidermidis Mencher, Table 11 | [4]; Staphylococcus epidermidis Mobley, Table 11
4 µg/mL: [2]; Haemophilus influenzae 76, end point after 24 hours, Table 18 | [2]; Haemophilus influenzae 16836, end point after 24 hours, Table 18 | [2]; Haemophilus influenzae C.L., end point after 24 hours, Table 18
64 µg/mL: [3]; B. fragilis 2, 24-hour, Table 12 | [3]; B. fragilis 9, 24-hour, Table 12 | [3]; B. fragilis 106, 24-hour, Table 12 | [3]; B. fragilis 110, 24-hour, Table 12 | [3]; B. fragilis 112, 24-hour, Table 12 | [3]; B. fragilis 1451, 24-hour, Table 12 | [3]; B. fragilis 1470, 24-hour, Table 12 | [3]; B. fragilis 9032, 24-hour, Table 12 | [3]; Bacteroides fragilis 1936B, Table 14
0.25 µg/mL: [1]; Staphylococcus aureus S13E, Table 17 | [5]; Streptococcus pneumoniae 2764, Table 11 | [5]; Streptococcus pneumoniae 6301, Table 11 | [5]; Streptococcus pneumoniae B1-438, end point after 24 hours, Table 18 | [5]; Streptococcus pneumoniae BI-343, Table 11 | [5]; Streptococcus pneumoniae Park I, Table 11 | [5]; Streptococcus pneumoniae Type 14, Table 11 | [6]; Streptococcus pyogenes 9943 | [6]; Streptococcus pyogenes 10389
16 µg/mL: [2]; Hemophilus influenzae 75-313, Table 9 | [2]; Hemophilus influenzae 75-364, Table 9 | [2]; Hemophilus influenzae 75-19300, Table 9 | [2]; Hemophilus influenzae 75-90383, Table 9 | [2]; Hemophilus influenzae A. Hall, Table 9 | [2]; Hemophilus influenzae Bruno, Table 9 | [2]; Hemophilus influenzae C. Steele, Table 9 | [2]; Hemophilus influenzae Howard, Table 9 | [2]; Hemophilus influenzae Miller, Table 9 | [2]; Hemophilus influenzae P. Wylie, Table 9 | [2]; Hemophilus influenzae R251, Table 9 | [2]; Hemophilus influenzae R259, Table 9 | [2]; Hemophilus influenzae R272, Table 9 | [2]; Hemophilus influenzae R274, Table 9 | [2]; Hemophilus influenzae S. Ford, Table 9
0.13 µg/mL: [1]; Staphylococcus aureus 3055, Table 11 | [4]; Staphylococcus epidermidis Britton, Table 11 | [4]; Staphylococcus epidermidis Litton, Table 11
8 µg/mL: [2]; Haemophilus influenzae Brun, Table 17 | [2]; Hemophilus influenzae 75-312, Table 9 | [2]; Hemophilus influenzae 4842, Table 9
0.5 µg/mL: [5]; Streptococcus pneumoniae Park I, Table 17 | [6]; Streptococcus pyogenes 12344
32 µg/mL: [2]; Hemophilus influenzae 75-465, Table 9 | [2]; Hemophilus influenzae G. Newton, Table 9 | [3]; B. fragilis 103, 24-hour, Table 12 | [3]; B. fragilis 104, 24-hour, Table 12 | [3]; B. fragilis 107, 24-hour, Table 12 | [3]; B. fragilis 108, 24-hour, Table 12 | [3]; B. fragilis 111, 24-hour, Table 12 | [3]; B. fragilis 113, 24-hour, Table 12 | [3]; B. fragilis 1877, 24-hour, Table 12 | [3]; Bacteroides fragilis 1877, Table 14
0.06 µg/mL: [1]; Staphylococcus aureus 3055, end point after 24 hours, Table 18 | [1]; Staphylococcus aureus V138, end point after 24 hours, Table 18 | [4]; Staphylococcus epidermidis 219, end point after 24 hours, Table 18 | [4]; Staphylococcus epidermidis 269, end point after 24 hours, Table 18 | [4]; Staphylococcus epidermidis 270, end point after 24 hours, Table 18 | [4]; Staphylococcus epidermidis 285, end point after 24 hours, Table 18
2 µg/mL: [2]; Haemophilus influenzae 251, Table 17 | [2]; Haemophilus influenzae 312, end point after 24 hours, Table 18 | [2]; Haemophilus influenzae 4842, end point after 24 hours, Table 18 | [2]; Haemophilus influenzae Bond, end point after 24 hours, Table 18 | [2]; Haemophilus influenzae Mx366, end point after 24 hours, Table 18 | [2]; Haemophilus influenzae Mx371, end point after 24 hours, Table 18
